The assay has as its system B antigen expression in HaCaT cells harboring B antigen. In words: Effect of ABH antigen-constituting monosaccharides and mixtures on B antigen expression, Western blotting. It counts as cell-based. The note with it: HaCaT cells, 0.1, 1 and 10 μM, 24 hours. As for the experimental part:
HaCaT cells harboring B antigen was treated respectively with FGG and FGGN mixture and FG (Fucose:Galactose=1:1, H-antigen composition) mixture which compose A, B, and H antigen, and also glucose, galactose, fucose, N-acetylgalactosamine and N-acetylglucosamine which are monosaccharides that constitute A, B, and H antigen at different concentrations of 0.1, 1, and 10 μM for 24 hours. Western blotting was performed to investigate the expression of B antigen. As a result, the expression of B antigen was increased in every case above (FIG. 9).

Consider `O=C[C@H](O)[C@@H](O)[C@@H](O)[C@H](O)CO` [galactose], for which the “expression of B antigen” value is listed as “increased”. Next, `CC(=O)N[C@H]1C(O)O[C@H](CO)[C@@H](O)[C@@H]1O` (stereo partly shown) [N-acetylglucosamine]: “increased”.

Consider `CC(=O)N[C@H]1C(O)O[C@H](CO)[C@H](O)[C@@H]1O` (stereo partly shown) [N-acetylgalactosamine], for which the “expression of B antigen” value is given as “increased”. With `C[C@H](O)[C@@H](O)[C@@H](O)[C@H](O)C=O` [fucose] the entry was “increased”.
